Source: patent US20230066011A1, “PYRROLOPYRIMIDINE DERIVATIVE, AND PHARMACEUTICAL COMPOSITION FOR PREVENTING OR TREATING PROTEIN KINASE-RELATED DISEASE COMPRISING SAME AS ACTIVE INGREDIENT” (VORONOI CO., LTD., priority 2019, published 2023)

Columns and labels:
Assay type in all cases: biochemical
LRRK2 (G2019S) = LRRK2 (G2019S) (Homo sapiens, UniProt Q5S007, G2019S); assay: LRRK2 G2019S enzyme inhibition, ADP-Glo kinase assay; design: purchased SignalChem L10-12GG; conditions: ATP 25 μM
Method: To evaluate an inhibitory activity of the compound according to the present invention against LRRK2, LRRK2 (G2019S), DYRK1, CLK1, and TTK kinases, experiments were performed as follows.
Each of the Example compounds was reacted with a purified human LRRK2 G2019S (L10-12GG, SignalChem) enzyme to evaluate an ability to inhibit an enzyme using a method as described below. A composition of 40 mM Tris-HCl (pH 7.4), 20 mM MgCl2, 0.5 mg/mL BSA, and 50 μM DTT was used as a reaction buffer, and all reactions of test substances were performed in the reaction buffer. Each of the compounds was diluted […] from a 10 mM DMSO stock using a serial dilution method, and enzyme activities were measured at final compound concentrations of 50, 10, 2, 0.4, 0.08, 0.016, 0.0032, 0.00064, 0.000128, 0.0000256, 0.00000512, and 0.000001024 μM. In the test, purified ATP (25 μM) and an enzyme substrate (0.2 μg) were reacted with a human LRRK2 G2019S (16 ng) enzyme at 25° C. for 2 hours, and the enzyme activities were then determined using an in vitro ADP-Glo™ kinase assay (Promega). An enzyme-activity reaction solution, an ADP-Glo reaction solution, and an enzyme-ability detection solution were reacted at a ratio of 2:2:1 to measure a degree of inhibition of the enzyme activity with luminescence. The degree of inhibition of the enzyme activity according to the treatment concentration of each of the compounds was calculated based on the fluorescence of the enzyme activity of the solvent control which was not treated with the compound. In this case, the concentration of each of the compounds inhibiting 50% of the enzyme activity was determined to be an IC50 (nM) value, and calculated using Prism (Version 5.01; GraphPad) software.

human GST-DYRK1A = target: T1, human GST-DYRK1A (Homo sapiens, UniProt Q13627); assay: GST-DYRK1A enzyme inhibition, ADP-Glo kinase assay; conditions: ATP 10 μM, GST-DYRK1A full length, read-out: DYRK1 IC50
T1 construct: purified human GST-DYRK1A (full length, Thermo Scientifics) enzyme; purchased Thermo Scientifics
Summary of the method: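 Full-length human GST-DYRK1A (10 ng) with 10 μM ATP and specific substrate in 40 mM Tris-HCl pH 7.4, 20 mM MgCl2, 0.5 mg/mL BSA, 50 μM DTT, 1 h at 25 °C. ADP formation read by ADP-Glo luminescence relative to solvent control; IC50 from three data sets.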

human GST-CLK1 = target: T2, human GST-CLK1 (Homo sapiens, UniProt P49759); assay: GST-CLK1 enzyme inhibition, ADP-Glo kinase assay; conditions: ATP 10 μM, GST-CLK1 129-end
T2 construct: purified human GST-CLK1 (129-end, SignalChem) enzyme; purchased SignalChem
T2 sequence (P49759 129-484 limits assumed): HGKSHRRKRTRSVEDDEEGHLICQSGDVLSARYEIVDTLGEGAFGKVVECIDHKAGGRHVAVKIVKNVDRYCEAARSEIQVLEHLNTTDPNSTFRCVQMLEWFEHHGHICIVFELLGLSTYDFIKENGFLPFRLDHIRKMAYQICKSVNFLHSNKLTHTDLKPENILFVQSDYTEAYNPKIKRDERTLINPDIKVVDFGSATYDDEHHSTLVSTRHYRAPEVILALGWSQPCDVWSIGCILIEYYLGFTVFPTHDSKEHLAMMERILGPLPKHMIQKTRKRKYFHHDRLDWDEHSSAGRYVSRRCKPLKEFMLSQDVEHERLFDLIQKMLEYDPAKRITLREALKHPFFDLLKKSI
Summary of the method: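 Human GST-CLK1 (129-end, 3 ng) reacted with substrate and 10 μM ATP for 1 h at 25° C in 40 mM Tris-HCl pH 7.4, 20 mM MgCl2, 0.5 mg/mL BSA, 50 μM DTT. ADP-Glo luminescence was normalised to solvent control; IC50 (nM) from 3 data sets.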

LRRK2 (G2019S), sequence (Q5S007 970-2527 G2019S limits assumed): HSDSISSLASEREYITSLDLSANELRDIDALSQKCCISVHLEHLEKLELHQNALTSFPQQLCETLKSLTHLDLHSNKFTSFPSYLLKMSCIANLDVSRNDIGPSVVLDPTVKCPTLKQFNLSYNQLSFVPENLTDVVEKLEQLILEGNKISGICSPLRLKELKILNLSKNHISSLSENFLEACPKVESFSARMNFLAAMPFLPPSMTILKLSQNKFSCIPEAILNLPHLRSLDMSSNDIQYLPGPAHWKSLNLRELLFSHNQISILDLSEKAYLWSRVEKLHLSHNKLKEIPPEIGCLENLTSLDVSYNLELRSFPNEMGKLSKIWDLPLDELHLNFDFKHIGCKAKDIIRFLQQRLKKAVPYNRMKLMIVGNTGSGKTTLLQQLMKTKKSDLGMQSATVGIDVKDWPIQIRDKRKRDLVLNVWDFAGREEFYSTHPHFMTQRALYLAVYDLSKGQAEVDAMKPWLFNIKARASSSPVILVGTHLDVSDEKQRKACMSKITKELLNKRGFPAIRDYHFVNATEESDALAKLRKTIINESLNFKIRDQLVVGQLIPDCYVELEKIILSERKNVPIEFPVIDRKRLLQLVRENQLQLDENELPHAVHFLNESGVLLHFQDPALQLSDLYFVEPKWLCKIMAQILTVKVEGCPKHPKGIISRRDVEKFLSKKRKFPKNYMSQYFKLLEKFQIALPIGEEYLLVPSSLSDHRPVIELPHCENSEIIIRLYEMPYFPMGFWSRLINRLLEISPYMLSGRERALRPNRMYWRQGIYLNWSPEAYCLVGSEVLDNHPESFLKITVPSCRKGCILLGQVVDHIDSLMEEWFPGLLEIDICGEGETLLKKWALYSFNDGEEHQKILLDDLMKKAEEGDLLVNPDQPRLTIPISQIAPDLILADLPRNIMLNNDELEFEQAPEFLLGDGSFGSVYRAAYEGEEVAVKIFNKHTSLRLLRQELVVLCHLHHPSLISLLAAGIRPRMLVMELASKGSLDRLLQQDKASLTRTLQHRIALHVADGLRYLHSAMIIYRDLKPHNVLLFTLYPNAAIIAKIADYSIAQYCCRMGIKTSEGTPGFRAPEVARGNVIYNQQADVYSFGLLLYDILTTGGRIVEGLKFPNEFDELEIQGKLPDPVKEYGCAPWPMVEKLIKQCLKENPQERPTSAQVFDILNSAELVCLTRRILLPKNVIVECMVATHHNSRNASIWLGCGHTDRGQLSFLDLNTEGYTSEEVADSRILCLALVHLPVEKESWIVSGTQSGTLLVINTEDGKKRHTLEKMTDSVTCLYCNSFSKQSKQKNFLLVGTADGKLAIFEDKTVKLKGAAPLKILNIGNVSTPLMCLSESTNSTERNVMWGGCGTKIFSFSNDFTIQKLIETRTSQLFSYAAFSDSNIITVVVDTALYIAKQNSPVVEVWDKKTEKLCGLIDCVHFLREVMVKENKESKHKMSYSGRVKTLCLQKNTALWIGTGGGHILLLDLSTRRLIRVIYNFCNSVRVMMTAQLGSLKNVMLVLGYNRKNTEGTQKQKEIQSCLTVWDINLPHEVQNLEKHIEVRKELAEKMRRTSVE

| IC50 (LRRK2 (G2019S)) [nM] | IC50 (human GST-DYRK1A) [nM] | IC50 (human GST-CLK1) [nM] | SMILES |
| --- | --- | --- | --- |
| < 100 | 301 to 1000 | < 100 | COc1cc(P(C)(C)=O)ccc1Nc1nc(NCC2CC2)c2c(C(F)(F)F)c[nH]c2n1 [Example 390, (4-((4-((cyclo-propylmeth-yl)amino)-5-(trifluoromethyl)-7H-pyrrolo[2,3-d]pyrimidin-2-yl)amino)-3-methoxyphenyl) dimethyl-phosphine oxide] |
| 101 to 300 | 301 to 1000 | < 100 | N#Cc1c[nH]c2nc(Nc3ccc(C(=O)N4CC(CO)(CO)C4)c4c3OCCO4)nc(NC3CC3)c12 [Example 332, 2-((8-(3,3-bis (hydroxymethyl)azetidine-1-carbonyl)-2,3-dihydrobenzo[b] [1,4]dioxin-5-yl)amino)-4-(cyclopropyl-amino)-7H-pyrrolo[2,3-d]pyrimidine-5-carbonitrile] |
| < 100 | 301 to 1000 | 301 to 1000 | COc1cc(P2(=O)CCN(C3COC3)CC2)ccc1Nc1nc(NCCS(C)(=O)=O)c2c(C#N)c[nH]c2n1 [Example 314, 2-((2-methoxy-4-(1-(oxetan-3-yl)-4-oxido-1,4-azaphosphinan-4-yl)phenyl)amino)-4-((2-(methyl-sulfonyl)eth-yl)amino)-7H-pyrrolo[2,3-d]pyrimidine-5-carbonitrile] |
| < 100 | 301 to 1000 | < 100 | CS(=O)(=O)CCNc1nc(Nc2ccc(C(=O)N3CCC(N4CCOCC4)CC3)c3c2OCC3)nc2[nH]cc(C#N)c12 [Example 345, 4-((2-(methyl-sulfonyl)eth-yl)amino)-2-((4-(4-morpholino-piperidine-1-carbonyl)-2,3-dihydro-benzofuran-7-yl)amino)-7H-pyrrolo[2,3-d]pyrimidine-5-carbonitrile] |
| < 100 | 301 to 1000 | 301 to 1000 | O=C(c1ccc(Nc2nc(NC3CCCCC3)c3cc[nH]c3n2)c2c1OCCO2)N1CCOCC1 [Example 49, (8-((4-(cyclohexylamino)-7H-pyrrolo[2,3-d]pyrimidin-2-yl)amino)-2,3-dihydrobenzo[b][1,4]dioxin-5-yl)(morpholino)methanone 2,2,2-trifluoroacetate] |
| < 100 | 301 to 1000 | 101 to 300 | CC(C)CNc1nc(Nc2ccc(C(=O)N3CCOCC3)c3c2OCCO3)nc2[nH]cc(C#N)c12 [Example 121, 4-(isobutylamino)-2-((8-(morpholine-4-carbonyl)-2,3-dihydrobenzo[b][1,4]dioxin-5-yl)amino)-7H-pyrrolo[2,3-d]pyrimidine-5-carbonitrile] |
| < 100 | 301 to 1000 | 301 to 1000 | COc1cc(S(C)(=O)=O)ccc1Nc1nc(NC(C)C)c2cc[nH]c2n1 [Example 14, N^4-isopropyl-N^2-(2-methoxy-4-(methylsulfonyl)phenyl)-7H-pyrrolo[2,3-d]pyrimidine-2,4-diamine 2,2,2-trifluoroacetate] |
| < 100 | 301 to 1000 | 301 to 1000 | COCCNc1nc(Nc2ccc(C(=O)N3CCOCC3)c3c2OCCO3)nc2[nH]ccc12 [Example 46, (8-((4-((2-methoxyethyl)amino)-7H-pyrrolo[2,3-d]pyrimidin-2-yl)amino)-2,3-dihydrobenzo[b][1,4]dioxin-5-yl)(morpholino)methanone 2,2,2-trifluoroacetate] |
| < 100 | 301 to 1000 | 301 to 1000 | CCCCNc1nc(Nc2ccc(P(C)(C)=O)cc2OC)nc2[nH]cc(C(F)(F)F)c12 [Example 393, (4-((4-(butylamino)-5-(trifluoromethyl)-7H-pyrrolo[2,3-d]pyrimidin-2-yl)amino)-3-methoxyphenyl) dimethyl-phosphine oxide] |
| < 100 | 301 to 1000 | < 100 | O=C(c1ccc(Nc2nc(NC3CC3)c3c(C(F)(F)F)c[nH]c3n2)c2c1CCO2)N1CCOCC1 [Example 433, (7-((4-(cyclo-propylamino)-5-(trifluoromethyl)-7H-pyrrolo[2,3-d]pyrimidin-2-yl)amino)-2,3-dihydrobenzo-furan-4-yl) (morpholino) methanone] |
| < 100 | 301 to 1000 | 301 to 1000 | COc1cc(P2(=O)CCN(C3CC3)CC2)ccc1Nc1nc(NCC2CC2)c2c(C(F)(F)F)c[nH]c2n1 [Example 421, 1-cyclopropyl-4-(4-((4-((cyclo-propylmeth-yl)amino)-5-(trifluoromethyl)-7H-pyrrolo[2,3-d]pyrimidin-2-yl)amino)-3-methoxyphenyl)-1,4-azaphosphinane 4-oxide] |
| < 100 | 301 to 1000 | < 100 | COc1cc(P2(=O)CCN(C3CC3)CC2)ccc1Nc1nc(N[C@H]2CCOC2)c2c(C(F)(F)F)c[nH]c2n1 [Example 417, (S)-1-cyclo-propyl-4-(3-methoxy-4-((4-((tetrahydrofuran-3-yl)amino)-5-(trifluoromethyl)-7H-pyrrolo[2,3-d]pyrimidin-2-yl)amino)phenyl)-1,4-azaphosphinane 4-oxide] |
| < 100 | 301 to 1000 | 301 to 1000 | COc1cc(S(C)(=O)=O)ccc1Nc1nc(NCC(C)C)c2c(C#N)c[nH]c2n1 [Example 100, 4-(isobutylamino)-2-((2-methoxy-4-(methylsulfonyl)phenyl)amino)-7H-pyrrolo[2,3-d]pyrimidine-5-carbonitrile] |
| < 100 | 301 to 1000 | 301 to 1000 | COc1cc(S(C)(=O)=O)ccc1Nc1nc(NCC2CC2)c2c(C#N)c[nH]c2n1 [Example 110, 4-((cyclopropylmethyl)amino)-2-((2-methoxy-4-(methylsulfonyl)phenyl)amino)-7H-pyrrolo[2,3-d]pyrimidine-5-carbonitrile] |
| < 100 | 301 to 1000 | 301 to 1000 | COc1cc(S(C)(=O)=O)ccc1Nc1nc(NC2CCCC2)c2cc[nH]c2n1 [Example 1, N^4-cyclopentyl-N^2-(2-methoxy-4-(methylsulfonyl)phenyl)-7H-pyrrolo[2,3-d]pyrimidine-2,4-diamine] |
| < 100 | 301 to 1000 | 301 to 1000 | CCCNc1nc(Nc2ccc(S(=O)(=O)N3CCOCC3)cc2OC)nc2[nH]ccc12 [Example 7, N^2-(2-methoxy-4-(morpholinosulfonyl)phenyl)-N^4-propyl-7H-pyrrolo[2,3-d]pyrimidine-2,4-diamine 2,2,2-trifluoroacetate] |
| < 100 | 301 to 1000 | 301 to 1000 | COc1cc(S(=O)(=O)N2CCC(N3CCOCC3)CC2)ccc1Nc1nc(NCC2CCC2)c2cc[nH]c2n1 [Example 38, N^4-(cyclobutylmethyl)-N^2-(2-methoxy-4-((4-morpholinopiperidin-1-yl)sulfonyl)phenyl)-7H-pyrrolo[2,3-d]pyrimidine-2,4-diamine 2,2,2-trifluoroacetate] |
| < 100 | 301 to 1000 | 301 to 1000 | COc1cc(S(=O)(=O)N2CCOCC2)ccc1Nc1nc(NCC2CC2)c2cc[nH]c2n1 [Example 31, N^4-(cyclopropylmethyl)-N^2-(2-methoxy-4-(morpholinosulfonyl)phenyl)-7H-pyrrolo[2,3-d]pyrimidine-2,4-diamine 2,2,2-trifluoroacetate] |
| < 100 | 301 to 1000 | 301 to 1000 | O=C(c1ccc(Nc2nc(NC3CCCC3)c3c(C(F)(F)F)c[nH]c3n2)c2c1CCO2)N1CCC(N2CCOCC2)CC1 [Example 459, (7-((4-(cyclo-pentylamino)-5-(trifluoromethyl)-7H-pyrrolo[2,3-d]pyrimidin-2-yl)amino)-2,3-dihydrobenzo-furan-4-yl)(4-morpho-linopiperidin-1-yl)methanone] |
| < 100 | 301 to 1000 | 301 to 1000 | COCC(C)(C)Nc1nc(Nc2ccc(S(C)(=O)=O)cc2OC)nc2[nH]ccc12 [Example 36, N^4-(1-methoxy-2-methylpropan-2-yl)-N^2-(2-methoxy-4-(methylsulfonyl)phenyl)-7H-pyrrolo[2,3-d]pyrimidine-2,4-diamine] |
